“Also recorded” adds a separate entry of the source.
Assays:
HAQ allele hSTING = biological target: T1, HAQ allele hSTING (Homo sapiens, UniProt Q86WV6, G230A/H232R/R293Q); assay: Differential scanning fluorometry (DSF) binding to purified hSTING HAQ allele; conditions: for binding relative to OH reference compound, in words / binding relative to naturally produced 2′3′-(G)(A), in words: Table 4 comment, HAQ allele hSTING
T1 construct: DNA encoding amino acids 140-379 (amino acid numbering corresponding to Swiss Prot Q86WV6); 6xHIS (N, cleaved yes); SUMO (N, cleaved yes); made in house; host or cells: Rosetta2 (DE3) E. coli
T1 sequence (Q86WV6 140-379 G230A/H232R/R293Q limits assumed): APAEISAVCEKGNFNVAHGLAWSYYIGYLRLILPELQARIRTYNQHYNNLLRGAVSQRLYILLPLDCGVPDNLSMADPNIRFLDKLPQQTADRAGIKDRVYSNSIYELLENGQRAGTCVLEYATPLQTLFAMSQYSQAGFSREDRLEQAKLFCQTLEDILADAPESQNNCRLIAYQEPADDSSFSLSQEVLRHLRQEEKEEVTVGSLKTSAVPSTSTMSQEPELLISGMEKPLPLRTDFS

hSTING HAQ allele = biological target: T2, hSTING HAQ allele (Homo sapiens, UniProt Q86WV6, G230A/H232R/R293Q/R71H); assay: IRF-3 inducible secreted luciferase reporter in THP1-Dual cells without digitonin; assay type: cell-based; conditions: for activity relative to OH reference compound, in words: Table 5 comment, THP1 cells without digitonin
T2 construct: a human monocyte cell line containing the hSTING HAQ allele; host or cells: THP1-Dual cells
T2 sequence (Q86WV6 whole entry R71H/G230A/H232R/R293Q): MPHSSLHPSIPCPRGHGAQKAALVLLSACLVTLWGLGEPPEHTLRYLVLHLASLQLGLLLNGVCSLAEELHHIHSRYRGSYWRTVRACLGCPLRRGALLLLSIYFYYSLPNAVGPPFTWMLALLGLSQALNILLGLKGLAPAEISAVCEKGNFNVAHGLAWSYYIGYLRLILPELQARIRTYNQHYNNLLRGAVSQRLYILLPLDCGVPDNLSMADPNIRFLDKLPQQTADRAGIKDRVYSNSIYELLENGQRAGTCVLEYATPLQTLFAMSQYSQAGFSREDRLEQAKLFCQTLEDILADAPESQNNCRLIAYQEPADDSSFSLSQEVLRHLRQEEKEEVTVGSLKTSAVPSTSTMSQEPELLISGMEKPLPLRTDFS
Outline: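 THP1-Dual cells were exposed for 30 min, washed, and cultured overnight at 37 °C in fresh RPMI/10% FBS. Secreted luciferase in the supernatant was read with QUANTI-Luc as the type I interferon signal. EC50 was taken from a 10-point serial-dilution dose-response curve.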

B16.F10 = B16.F10 melanoma mouse model, intra-tumoral injection; assay type: in vivo, C57BL/6 female mice; conditions: FIG. 15A, IT 10 or 100 μg, three injections, vs HBSS
Procedure: (§1) To assess the ability of the fluorinated derivative compounds to promote anti-tumor immunity in diverse murine tumor models, tumor cells were implanted (in 100 μL PBS) subcutaneously on the lower back of 6-8 week old C57BL/6 female mice. Treatments began when tumors reached a volume of approximately 100 mm^3, on approximately day 14 post tumor implantation (see table below for tumor type, number of cells, and day of IT injection). The CDN compounds were administered by IT injection (10 or 100 μg in a total volume of 40 μL HBSS), and repeated every three days for a total of three injections. The compounds 3′3′-RR-(2′F-A)(2′F-A) and 3′3′-RR-(2′F-G)(2′F-A) and control mice given vehicle only (40 μL HBSS) were dosed. Tumors were measured twice weekly.

MC38 = MC38 colon carcinoma mouse model, intra-tumoral injection; assay type: in vivo, C57BL/6 female mice; conditions: FIG. 15B, IT 10 or 100 μg, three injections, vs HBSS
Procedure: as §1

hSTING(WT) [1] = biological target: T3, hSTING(WT) (Homo sapiens, UniProt Q86WV6, H232R); assay: IFN-β luciferase reporter in HEK293T cells stably expressing hSTING(WT), digitonin permeabilization; conditions: FIGS. 5A-B, 0.1 μM to 100 μM and 6.25 μM CDN
Target sequence in this assay (Q86WV6 whole entry H232R): as the sequence (Q86WV6 whole entry R71H/G230A/H232R/R293Q) above, with H71R, A230G, Q293R counted along it
Procedure: (§2) 24 hours later, cells were stimulated with native and synthetic CDN derivative molecules using digitonin permeabilization to ensure uniform uptake.
(§3) After 20 min, the stimulation mixtures were removed and 200 ul of DMEM media supplemented with 10% (vol/vol) fetal bovine serum, 1% L-Glutamine, and 1% Penicillin/Streptomycin was added. Cells were incubated an additional 6 hours (37° C., 5% CO2) and then cell lysates were prepared and reporter gene activity measured on a Spectramax M3 luminometer using the Dual-Glo Luciferase Assay System (Promega, catalog #E2920) as described by the manufacturer. IFNβ firefly luciferase reporter gene activity was normalized to TK renilla luciferase gene activity and plotted as fold induction over activity in unstimulated cells (mean+/−s.e.m.).

hSTING(REF) [2] = biological target: T4, hSTING(REF) (Homo sapiens, UniProt Q86WV6); assay: IFN-β luciferase reporter in HEK293T cells stably expressing hSTING(REF), digitonin permeabilization; conditions: FIGS. 6A-B, 0.1 μM to 100 μM and 6.25 μM CDN
Target sequence in this assay (Q86WV6 whole entry, the tested form may be a part): as the sequence (Q86WV6 whole entry R71H/G230A/H232R/R293Q) above, with H71R, A230G, R232H, Q293R counted along it
Procedure: as §2, §3

hSTING(WT) [3] = biological target: T3, hSTING(WT); assay: Differential scanning fluorometry (DSF) binding to purified hSTING WT; parameters: DNA encoding amino acids 140-379 (amino acid numbering corresponding to Swiss Prot Q86WV6); 6xHIS (N, cleaved yes); SUMO (N, cleaved yes); made in house; host or cells: Rosetta2 (DE3) E. coli; conditions: for Tm shift compared with non fluorine substituted compounds and 2′3′-(G)(A), in words: FIG. 3, hSTING (WT); for binding relative to OH reference compound, in words / binding relative to naturally produced 2′3′-(G)(A), in words: Table 4 comment, wild type hSTING
Target sequence in this assay (Q86WV6 140-379 H232R): as the sequence (Q86WV6 140-379 G230A/H232R/R293Q limits assumed) above, with A91G, Q154R counted along it

hSTING(REF) [4] = biological target: T4, hSTING(REF); assay: Differential scanning fluorometry (DSF) binding to purified hSTING REF allele; parameters: DNA encoding amino acids 140-379 (amino acid numbering corresponding to Swiss Prot Q86WV6); 6xHIS (N, cleaved yes); SUMO (N, cleaved yes); made in house; host or cells: Rosetta2 (DE3) E. coli; conditions: for Tm shift compared with non fluorine substituted compounds and 2′3′-(G)(A), in words: FIG. 2, hSTING (REF); for binding relative to OH reference compound, in words / binding relative to naturally produced 2′3′-(G)(A), in words: Table 4 comment, REF allele hSTING
Target sequence in this assay (Q86WV6 140-379): as the sequence (Q86WV6 140-379 G230A/H232R/R293Q limits assumed) above, with A91G, R93H, Q154R counted along it

[5] = DSF, 1 mg/ml STING AA140-379, ligand 1 mM
[6] = listed as 3′3′-RR-(2′F-A)(2′F-A)

Row | SMILES | hSTING Tm Shift HAQ (HAQ allele hSTING; [5]) [°C] | binding relative to OH reference compound, in words (HAQ allele hSTING) | binding relative to naturally produced 2′3′-(G)(A), in words (HAQ allele hSTING) | activity relative to OH reference compound, in words (hSTING HAQ allele) | EC50 (hSTING HAQ allele; without digitonin in THP1 cells (HAQ allele)) [µM] | tumor volume, in words (B16.F10; [6]) | tumor volume, in words (MC38) | IFNβ luciferase reporter induction by hSTING(WT), in words (hSTING(WT) [1]; [6]) | IFNβ luciferase reporter induction by hSTING(REF), in words (hSTING(REF) [2]) | hSTING Tm Shift WT (hSTING(WT) [3]; [5]) [°C] | Tm shift compared with non fluorine substituted compounds and 2′3′-(G)(A), in words (hSTING(WT) [3]) | binding relative to OH reference compound, in words (hSTING(WT) [3]) | binding relative to naturally produced 2′3′-(G)(A), in words (hSTING(WT) [3]) | hSTING Tm Shift REF (hSTING(REF) [4]; [5]) [°C] | Tm shift compared with non fluorine substituted compounds and 2′3′-(G)(A), in words (hSTING(REF) [4]) | binding relative to OH reference compound, in words (hSTING(REF) [4]) | binding relative to naturally produced 2′3′-(G)(A), in words (hSTING(REF) [4]) | tumor volume, in words (B16.F10) | IFNβ luciferase reporter induction by hSTING(WT), in words (hSTING(WT) [1]; listed as 3′3′-RR-(2′F-G)(2′F-A))
1 | Nc1ncnc2c1ncn2[C@@H]1O[C@@H]2CO[P@@](=O)(S)O[C@H]3[C@@H](F)[C@H](n4cnc5c(N)ncnc54)O[C@@H]3CO[P@@](=O)(S)O[C@H]2[C@H]1F [Compound 6, (2R,3R,3aR,5R,7aR,9R,10R,10aR,12R,14aR)-2,9-bis(6-amino-9H-purin-9-yl)-3,10-difluoro-5,12-dimercaptooctahydro-2H,7H-difuro[3,2-d:3′,2′-j][1,3,7,9]tetraoxa[2,8]diphosphacyclododecine 5,12-dioxide] | 32.4 | improved binding | improved binding | improved activity | 19 | induced significant tumor inhibition as compared to HBSS; also recorded: complete tumor regression at the 100 μg dose | elicited complete tumor regression at all doses tested | induced higher levels of IFNβ reporter activity by hSTING(WT) than the non-fluorine substituted compounds; also recorded: stimulated higher levels of IFNβ reporter activity by hSTING(WT) when compared to the endogenous cellular ligand 2′3′-(G)(A) | strongly induced IFNβ reporter activity, to a level similar to the endogenous cellular ligand 2′3′-(G)(A) | 19.3 | increased Tm shift | improved binding | improved binding | 9.1 | increased Tm shift | improved binding | improved binding | – | –
2 | Nc1nc2c(ncn2[C@@H]2O[C@@H]3CO[P@@](=O)(S)O[C@H]4[C@@H](F)[C@H](n5cnc6c(N)ncnc65)O[C@@H]4CO[P@@](=O)(S)O[C@H]3[C@H]2F)c(=O)[nH]1 (stereo in doubt) [Compound 14, 2-Amino-9-((2R,3R,3aR,5R,7aR,9R,10R,10aR,12R,14aR)-9-(6-amino-9H-purin-9-yl)-3,10-difluoro-5,12-dimercapto-5,12-dioxidooctahydro-2H,7H-difuro [3,2-d:3′,2′-j][1,3,7,9]tetraoxa[2,8]diphosphacyclododecin-2-yl)-1,9-dihydro-6H-purin-6-one] | – | improved binding | improved binding | improved activity | – | – | elicited complete tumor regression at all doses tested | – | strongly induced IFNβ reporter activity, to a level similar to the endogenous cellular ligand 2′3′-(G)(A) | – | increased Tm shift | improved binding | improved binding | – | increased Tm shift | improved binding | improved binding | induced significant tumor inhibition as compared to HBSS | strongly induced IFNβ reporter activity by hSTING(WT); also recorded: more potently induced IFNβ reporter activity by hSTING(WT) than the compound 3′3′-(G)(A)

From patent US11040053B2, “Compositions and methods for activating “stimulator of interferon gene”13 dependent signalling” (CHINOOK THERAPEUTICS, INC., priority 2015, dated 2021)
